From US20260174682A1, “GAMMA-AMINOBUTYRIC ACID DERIVATIVE COMPRISING POLYCYCLIC STRUCTURE, METHOD FOR PREPARING SAME, AND USE THEREOF” (ZHONGSHAN INSTITUTE FOR DRUG DISCOVERY, SIMM, CAS., priority 2022, published 2026)
Where two headings read alike, the source gives them in different places. Marks after values point to notes of the source that are not given here.

Key:
[1] = system: mouse 6-Hz psychomotor seizure model; assay: Antiepileptic effect in mouse 6-Hz psychomotor seizure model; format: in vivo; settings: 6-Hz model, C57BL/6 mice, gavage, dose 300 mg/kg
Description: A negative vehicle control group, a positive drug control group (pregabalin and gabapentin) and a test group of the compounds of the present application were set. Male C57BL/6 mice with a body weight of 20±2 g were selected. […] After fasted for 12 h, the mice were administered the compounds of the present application or the control drugs, and then subjected to 6-Hz electrical stimulation to induce epilepsy seizure behaviors after a certain time interval (2 h for pregabalin, 1 h for gabapentin, 1 h for levetiracetam, and 3 h for the compounds of the present application). In an induction model, when the stimulation was performed with a Model 4100 stimulator (A-M Systems, the United States), rear necks of the mice were immobilized by hands on a feeding cage, a corneal electrode was moisten with normal saline and allowed to gently contact bilateral corneas of the mice, the electrical stimulator was trod by a foot to give the mice the electrical stimulation with a stimulation parameter of 6-Hz, a one-way square wave of 32 mA, a wave width of 0.2 ms and a stimulation duration of 3 sec, and timing was performed with a stopwatch during the stimulation. After the electrical stimulation was completed, the mice with the seizure behaviors lasting for less than 7 sec were regarded as being protected by the drugs, and the mice with the seizure behaviors lasting for more than 7 sec were regarded as being not protected from the epilepsy by the drugs. Response situations of the animals were observed and recorded, and obtained data were counted to calculate protection rates of the compounds.
Statistical method: The protection rates of different administration groups were separately compared with that of the vehicle control group to carry out a Fisher's exact test.

[2] = system: mouse model with subcutaneous injection of pentylenetetrazole (sc-PTZ); assay: Antiepileptic effect in mouse model with subcutaneous injection of pentylenetetrazole (sc-PTZ); format: in vivo
Description: A negative vehicle control group, a positive drug control group (pregabalin and gabapentin) and a test group of the compounds of the present application were set. Male ICR mice with a body weight of 22±2 g were selected. […] After fasted for 12 h, the mice were administered the compounds of the present application or the control drugs, and then subcutaneously injected with pentylenetetrazole (PTZ) to induce epilepsy seizure behaviors after a certain time interval (2 h for pregabalin, 1 h for gabapentin, and 3 h for the compounds of the present application). In an induction model, pentylenetetrazole (PTZ) was dissolved in normal saline and administered to the mice through the way of subcutaneous injection (10 mL/kg, administration dose 100 mg/kg). After the injection of PTZ, behavioral observations on the mice were conducted for 1 h, and the latent periods and numbers of the mice with convulsive seizures, clonic seizures, tonic seizures and death after the injection of PTZ were recorded.
Statistical method: Protection rates and mortality of different administration groups were separately compared with those of the vehicle control group to carry out a Fisher's exact test. The seizure time and the latent periods were analyzed by one-way ANOVA.

[3] = system: mouse maximum electroshock model (MES); assay: Antiepileptic effect in mouse maximum electroshock model (MES); format: in vivo; settings: MES, ICR mice, gavage, dose 300 mg/kg
Description: A negative vehicle control group, a positive drug control group (pregabalin and gabapentin) and a test group of the compounds of the present application were set. Male ICR mice with a body weight of […] were selected. […] After fasted for 12 h, the mice were administered the compounds of the present application or the control drugs according to the body weight, and then subjected to electrical stimulation to induce generalized tonic-clonic seizure behaviors after a certain lime interval (2 h for pregabalin, 1 h for gabapentin, and 3 h for the compounds of the present application). A YLS-9A electrophysiological stimulator (Shanghai Xinruan Information Technology Co., Ltd.) was used in an induction model, and parameters were set as follows: configuration 8, stimulation voltage 160 V, wave number 90. When the electrical stimulation was performed, ears on both sides of the mice were firstly wiped with normal saline and then given the electrical stimulation for 1 lime with ear clip electrodes. Tonic straightening of hind limbs was used as a standard for epilepsy seizures. The animals with the tonic straightening of hind limbs were regarded as not being protected by the drugs, and the animals without the tonic straightening of hind limbs were regarded as being protected by the drugs. Response situations of the animals were observed and recorded, and obtained data were counted to calculate protection rates of the compounds.
Median effective doses (ED50) of the compounds to be tested for animal protection were calculated by a least square method (Graphpad Prism 5) with an administration dose-protection rate curve.

postherpetic neuralgia = settings: cited from earlier work
[4] = system: diabetic peripheral neuropathic pain; settings: cited from earlier work
[5] = sc-PTZ 100 mg/kg, ICR mice, intraperitoneal 30 mg/kg (own compounds calculated by free base), 1 h observation

SMILES | Number of animals with clonic seizures/total number [1] | Protection rate (%) [1] | Clonic seizure incidence [2, 5] | Convulsive seizure incidence [2, 5] | Generalized clonic seizure incidence [2, 5] | Mortality [2, 5] | Tonic seizure incidence [2, 5] | improvement of the convulsive seizure incidence and the mortality ([2]; sc-PTZ mice, 30 mg/kg) | latent periods of generalized clonic seizures, tonic seizures and death ([2]; sc-PTZ mice, 30 mg/kg (calculated by free base), FIG. 6) | Number of animals with tonic straightening of hind limbs/total number of detected animals [3] | Protection rate (%) [3] [%] | clinical effective rate (postherpetic neuralgia; daily dose up to 1,800 mg/day) [%] | clinical effective rate (postherpetic neuralgia; daily dose up to 2,400 mg/day) [%] | clinical effective rate (postherpetic neuralgia; daily dose up to 3,600 mg/day) [%] | clinical effective rate ([4]; 60 mg/day) [%] | clinical effective rate ([4]; 120 mg/day) [%]
NCC1(CC(=O)O)CCCCC1 [Gabapentin] | 2/4 | 50.0 * % | 10/10 | 10/10 | 10/10 | 7/10 | 6/10 | does not significantly improve | not effective | 2/8 | 75.0 | 32 | 34 | 43 |  | 
CNCC[C@H](Oc1cccc2ccccc12)c1cccs1 [duloxetine] |  |  |  |  |  |  |  |  |  |  |  |  |  |  | 49 | 52
